Where two headings read alike, the source gives them in different places.
How the values were obtained:
[1] = tested on: patients with non-ST elevation acute coronary syndrome; assay: MERLIN-TIMI 36: adverse events; assay type: in vivo, human; conditions: n = 3268
[2] = tested on: patients with non-ST elevation acute coronary syndrome; assay: MERLIN-TIMI 36: HbA1c and hyperglycemia; assay type: in vivo, human
Excerpt: The proportion of patients in the MERLIN-TIMI 36 study with HbA1C≧7% is shown in Table 28 below (and see FIG. 15).
The proportion of patients with HbA1C≧7% (with diabetes or no diabetes) at various times during the MERLIN-TIMI 36 study is shown in Table 29 below (and FIG. 16).
HbA1c data are reported as least-square means. Patients categorized as “diabetic” had been diagnosed as diabetic before or at the time of randomization. Patients categorized as “no diabetes” had not been diagnosed as diabetic before or at the time of randomization. Some patients characterized as “no diabetes” may have been diagnosed as “diabetic” during the trial; however, these patients are still listed in the “no diabetes” category in FIG. 4B.

[3] = tested on: patients with non-ST elevation acute coronary syndrome; assay: MERLIN-TIMI 36: efficacy endpoints (CV death, MI, recurrent ischemia, failure of therapy); assay type: in vivo, human
Excerpt: The MERLIN-TIMI 36 primary efficacy endpoint (ITT) time from randomization to first occurrence of cardiovascular death, myocardial infarction, or recurrent ischemia data is shown in Table 11 below (and FIGS. 4 and 5).
The MERLIN-TIMI 36 major secondary efficacy endpoint (ITT) time from randomization to first occurrence of cardiovascular death, myocardial infarction, or severe recurrent ischemia data is shown in Table 12 below (and FIGS. 6 and 7).
The secondary efficacy endpoint time from randomization to failure of therapy (cardiovascular death, […], recurrent ischemia, positive Holter for ischemia, New/Worsening heart failure, or early+ETT) data from MERLIN-TIMI 36 is shown in Table 14 below (and FIGS. 8 and 9).
The secondary efficacy endpoint (ITT) incidence at 30 days of cardiovascular death, myocardial infarction, severe recurrent ischemia, or positive Holter for ischemia data from MERLIN-TIMI 36 is shown in Table 15 below.
The data for time from randomization to first occurrence of cardiovascular death or myocardial infarction from MERLIN-TIMI 36 is shown in Table 20 below. For relative risk of CV death, MI, or recurrent ischemia by subgroup, see FIG. 10. For relative risk of CV death, MI, or severe recurrent ischemia by subgroup, see FIG. 11. For relative risks of failure of therapy by subgroup, see FIG. 12.

[4] = tested on: patients with non-ST elevation acute coronary syndrome
[5] = tested on: patients with non-ST elevation acute coronary syndrome; assay: MERLIN-TIMI 36: arrhythmias on 7 day continuous ECG (Holter) recording; assay type: in vivo, human
Procedure: The safety endpoint data for incidence of clinically significant arrhythmias during 7 day Holter monitoring from MERLIN-TIMI 36 is shown in Table 24 below.
Continuous ECG (Holter) recording was performed for the first 7 days after randomization. Because of the known prolongation of the QT interval with ranolazine, analyses of a prespecified set of arrhythmias were a major objective of the trial. All arrhythmias were evaluated in the TIMI ECG Core Laboratory by cardiologists blinded to treatment and outcomes.
Continuous ECG (cECG or Holter) recording was performed for the first 7 days after randomization. Prespecified arrhythmia analyses were evaluated by a core laboratory blinded to treatment and outcomes.

[6] = tested on: patients with non-ST elevation acute coronary syndrome; assay: MERLIN-TIMI 36: Seattle Angina Questionnaire scores at 4 months; assay type: in vivo, human; conditions: ITT, N 2558
Excerpt: The MERLIN-TIMI 36 secondary efficacy endpoint (ITT) Seattle Angina Questionnaire scores at 4 months for anginal frequency scale are shown in Table 16 below, and scores for physical limitation scale are shown in Table 17 below.

[7] = tested on: patients with non-ST elevation acute coronary syndrome; assay: MERLIN-TIMI 36: ischemia on Holter / continuous ECG (CECG) monitoring; assay type: in vivo, human; conditions: ranolazine vs placebo
Procedure: At randomization, 6355 patients (99%) had 3-lead CECG monitoring initiated (median duration 6.9 days). The primary CECG endpoint was the rate of ST dep≧1 mm from baseline lasting ≧1 minute with heart rate at onset <100 bpm. Exploratory analyses using ST dep≧0.5 mm were also performed.

[8] = patients with DM treated with ranolazine
[9] = ITT, n = 3279, major secondary efficacy endpoint
[10] = ITT, n = 3279, primary efficacy endpoint
[11] = placebo vs ranolazine, cECG monitoring

COc1ccccc1OCC(O)CN1CCN(CC(=O)Nc2c(C)cccc2C)CC1 (racemic) [Ranolazine, (±)—N-(2,6-dimethylphenyl)-4-[2-hydroxy-3-(2-methoxyphenoxy)-propyl]-1-piperazineacetamide]
Adverse event: Angina pectoris (%) ([1]; AE summary > 4% incidence): (8%)
Adverse event: Angina unstable (%) ([1]; AE summary > 4% incidence): (10%)
Adverse event: Asthenia (%) ([1]; AE summary > 4% incidence): (5%)
Adverse event: Cardiac failure (%) ([1]; AE summary > 4% incidence): (5%)
Adverse event: Chest pain (%) ([1]; AE summary > 4% incidence): (11%)
Adverse event: Constipation (%) ([1]; AE summary > 4% incidence): (9%)
Adverse event: Dizziness (%) ([1]; AE summary > 4% incidence): (13%)
Adverse event: Fatigue (%) ([1]; AE summary > 4% incidence): (4%)
Adverse event: Headache (%) ([1]; AE summary > 4% incidence): (7%)
Adverse event: Hypotension (%) ([1]; AE summary > 4% incidence): (5%)
Adverse event: Nausea (%) ([1]; AE summary > 4% incidence): (9%)
Serious adverse event: ACS (%) ([1]; SAEs ≧ 1% incidence): (2%)
Serious adverse event: Acute MI (%) ([1]; SAEs ≧ 1% incidence): (3%)
Serious adverse event: Angina pectoris (%) ([1]; SAEs ≧ 1% incidence): (4%)
Serious adverse event: Angina unstable (%) ([1]; SAEs ≧ 1% incidence): (8%)
Serious adverse event: Atrial fibrillation (%) ([1]; SAEs ≧ 1% incidence): (1%)
Serious adverse event: Cardiac failure (%) ([1]; SAEs ≧ 1% incidence): (4%)
Serious adverse event: Cardiac failure congestive (%) ([1]; SAEs ≧ 1% incidence): (1%)
Serious adverse event: Chest pain (%) ([1]; SAEs ≧ 1% incidence): (2%)
Serious adverse event: MI (%) ([1]; SAEs ≧ 1% incidence): (4%)
Serious adverse event: Syncope (%) ([1]; SAEs ≧ 1% incidence): (1%)
Patients early prematurely withdrawn due to AEs (%) ([1]; Safety - All Patients Dosed): (13%)
Patients with AEs (%) ([1]; Safety - All Patients Dosed): (76%)
Patients with AEs leading to death (%) ([1]; Safety - All Patients Dosed): (5%)
Patients with serious AEs (SAEs) (%) ([1]; Safety - All Patients Dosed): (34%)
Patients with study drug-related AEs (%) ([1]; Safety - All Patients Dosed): (30%)
Patients with HbA1C ≧ 7% (%) ([2]; Baseline (In-Hospital visit prior to randomization), all patients dosed): 24%
Patients with HbA1C ≧ 7% (%) ([2]; Diabetes at enrollment, n = 1098, Baseline): 57%
Patients with HbA1C ≧ 7% (%) ([2]; Diabetes at enrollment, n = 1098, Final Visit): 42%
Patients with HbA1C ≧ 7% (%) ([2]; Diabetes at enrollment, n = 1098, Month 4): 41%
Patients with HbA1C ≧ 7% (%) ([2]; Diabetes at enrollment, n = 1098, Month 8): 44%
Patients with HbA1C ≧ 7% (%) ([2]; Diabetes at enrollment, n = 1098, Month 16): 48%
Patients with HbA1C ≧ 7% (%) ([2]; Final Visit, all patients dosed): 17%
Patients with HbA1C ≧ 7% (%) ([2]; Month 4, all patients dosed): 17%
Patients with HbA1C ≧ 7% (%) ([2]; Month 8, all patients dosed): 18%
Patients with HbA1C ≧ 7% (%) ([2]; Month 16, all patients dosed): 20%
Patients with HbA1C ≧ 7% (%) ([2]; No Diabetes at enrollment, n = 2170, Baseline): 6%
Patients with HbA1C ≧ 7% (%) ([2]; No Diabetes at enrollment, n = 2170, Final Visit): 6%
Patients with HbA1C ≧ 7% (%) ([2]; No Diabetes at enrollment, n = 2170, Month 4): 5%
Patients with HbA1C ≧ 7% (%) ([2]; No Diabetes at enrollment, n = 2170, Month 8): 6%
Patients with HbA1C ≧ 7% (%) ([2]; No Diabetes at enrollment, n = 2170, Month 16): 7%
HbA1c ([2]; at 4 months, 4306 patients with serial measurements, least-square means): 5.9%
HR for worsening of hyperglycemia ([2]; diabetic patients, ranolazine vs placebo): 0.63
HbA1c after decline (declined to) [2, 8]: 6.8
HbA1c before decline (declined from) [2, 8]: 7.2
Patients achieving HbA1c<7% ([2]; patients with DM, at 4 months): 59%
HR for new fasting glucose >110 mg/dL or HbA1c≧6% ([2]; patients without DM, ranolazine vs placebo): 0.68
Incidence (Kaplan-Meier estimate) of CV death or MI ([3]; 30 days, ITT): 4.2%
Incidence (Kaplan-Meier estimate) of CV death, MI, or recurrent ischemia ([3]; 30 days, ITT): 7.7%
Incidence (Kaplan-Meier estimate) of CV death, MI, or severe recurrent ischemia ([3]; 30 days, ITT): 7.5%
Incidence (Kaplan-Meier estimate) of CV death or MI ([3]; 60 days, ITT): 5.3%
Incidence (Kaplan-Meier estimate) of CV death, MI, or recurrent ischemia ([3]; 60 days, ITT): 9.9%
Incidence (Kaplan-Meier estimate) of CV death, MI, or severe recurrent ischemia ([3]; 60 days, ITT): 9.4%
Endpoint-defining events: CV death (%) ([3]; ITT, n = 3279, CV death or MI endpoint): 30.5%
Pts with events: first occurrence of CV death or MI ([3]; ITT, n = 3279, additional efficacy endpoint): 338
Endpoint-defining events: CV death (%) [3, 9]: 14.6%
Pts with events: first occurrence of CV death, MI, or severe recurrent ischemia [3, 9]: 602
Endpoint-defining events: CV death (%) [3, 10]: 12.5%
Pts with events: first occurrence of CV death, MI, or recurrent ischemia [3, 10]: 695
Pts with events: CV death, MI, severe RI, or positive Holter for ischemia (%) ([3]; incidence at 30 days, ITT, n = 3279): 23%
Primary endpoint occurred in (% of patients) ([3]; ranolazine group, Example 7): 21.8%
HR for cardiovascular death or MI ([3]; ranolazine vs placebo): 0.99
HR for recurrent ischemia ([3]; ranolazine vs placebo): 0.87
HR for the primary endpoint ([3]; ranolazine vs placebo): 0.92
Relative risk (SE): CV death, MI, or severe recurrent ischemia ([3]; ranolazine vs placebo, ITT, major secondary efficacy endpoint): 0.982 (0.06)
HR for worsening angina ([3]; women, ranolazine vs placebo): 0.61
Incidence (Kaplan-Meier estimate) of death from any cause ([4]; 30 days): 1.8%
Incidence (Kaplan-Meier estimate) of death or CV hospitalization ([4]; 30 days): 9.2%
Incidence (Kaplan-Meier estimate) of death from any cause ([4]; 60 days): 2.2%
Incidence (Kaplan-Meier estimate) of death or CV hospitalization ([4]; 60 days): 15.0%
Incidence (Kaplan-Meier estimate) of death from any cause ([4]; 180 days): 3.4%
Incidence (Kaplan-Meier estimate) of death from any cause ([4]; 360 days): 5.3%
Incidence (Kaplan-Meier estimate) of death from any cause ([4]; 540 days): 7.0%
Pts with events: death from any cause ([4]; All Patients Dosed, n = 3268): 172
Pts with events: first occurrence of death or CV hospitalization ([4]; All Patients Dosed, n = 3268): 1037
Endpoint-defining events: Death (%) ([4]; death or CV hospitalization endpoint, n = 3268): 10.7%
Endpoint-defining events: CV hospitalization (%) ([4]; human, in vivo): 89.3%
Symptomatic documented arrhythmias (% of patients) ([4]; human, in vivo): 3.0%
HR for total mortality ([4]; ranolazine vs placebo): 0.99
Any Clinically Significant Arrhythmia during 7 Day Holter (%) ([5]; All Patients Dosed, n = 3268): 71.3%
Bradycardic episode during 7 Day Holter (%) ([5]; All Patients Dosed, n = 3268): 38.5%
New onset atrial fibrillation during 7 Day Holter (%) ([5]; All Patients Dosed, n = 3268): 1.7%
Supraventricular tachycardia during 7 Day Holter (%) ([5]; Any SVT >= 120 bpm, n = 3268): 43.2%
Ventricular tachycardia during 7 Day Holter (%) ([5]; Any VT >= 100 bpm >= 3 beats, n = 3268): 29.0%
Pause > 3 secs (%) ([5]; Holter, first 7 days, n = 3162): (3.1) %
VT >= 8 beats (<30 secs) (%) ([5]; Holter, first 7 days, n = 3162): (5.5) %
New-onset atrial fibrillation (% of patients) ([5]; cECG first 7 days, Example 9): 1.7%
Polymorphic VT >= 8 beats (%) ([5]; cECG monitoring): (1.2) %
Sustained VT (>=30 sec) (%) ([5]; cECG monitoring): (0.44) %
VT ≧ 8 beats (<30 sec) (%) ([5]; cECG monitoring): (5.3) %
VT ≧ 8 beats (<30 sec) (%) ([5]; cECG monitoring, listed as ranolazine): 5.3%
Polymorphic VT >= 8 beats: Δ (%) [5, 11]: −21%
Sustained VT (>=30 sec): Δ [5, 11]: 0
VT ≧ 3 beats (≧100 b/m): Δ (%) [5, 11]: −17%
VT ≧ 4 beats (≧100 b/m): Δ (%) [5, 11]: −30%
VT ≧ 8 beats (<30 sec): Δ (%) [5, 11]: −37%
Seattle Angina Questionnaire, Anginal Frequency Scale: Median [6]: 100
RR for primary CECG endpoint events ([7]; >72 hours after randomization): 0.86
RR for CECG ischemic events ([7]; lower ischemic threshold of 0.5 mm): 0.91

Source: patent US20080214556A1 (priority 2007, published 2008)
